Series [1] deals with human dermal fibroblast (NHDF) cells. As to the kind of experiment: Quenching studies using sodium azide and D2O. The format is cell-based. Conditions: after illumination. On the procedure: Triangle/solid line: Compound 10+PBS buffer+light; Squares/solid line: Compound 10+D2O+light; Circles/solid line: Compound 10+sodium azide+light; Triangles/dotted line: Compound 10+PBS buffer w/o light; Squares/dotted line: Compound 10+D2O w/o light; Circles/dotted line: Compound 10+sodium azide w/o light. (n=3, mean±Std).
Quenching studies using D2O and azide were performed with Compound 10 and light against keratinocytes in vitro. In order to investigate whether phototoxicity of the test compound against NHDF, NHEK and bacteria follows the photo-oxidation type II, sodium azide, a physical quencher of singlet oxygen as well as D2O an enhancer of reactive oxygen species were (Lin et al., 1991, Cancer Res. 51:1109-1116; Moan et al., 1979, Brit. J. Cancer 39:398-407).

The subject of series [2] is Guinea Pig skin (intact and abraded). As to the kind of experiment: Photo-toxicity test (OECD 406 based). The format is in vivo. On the procedure:
Clinical and histological examination of the skin test sites was conducted at 24 and 72 hours post illumination in classical photo-toxicity testing fashion. Biopsies were not done from contiguous sites to prevent any interaction in case of suture. Gross findings were evaluated at the moment of the biopsy. Before giving a score to each endpoint (erythema, oedema and inflammation), data for each subject were compared to the data from the other animals and to control data. A score from 0 to 4 was given for each site and for each endpoint according to the Draize Scale (for inflammation, a scale similar to the Draize Scale was created after microscopic observation of all skin sections, comparing with normal skin and with findings of step-1). A mean score was then calculated for each animal and for each sampling point.

The next series relates to S. aureus ATCC BAA-44. As to the kind of experiment: Photodynamic activity against MRSA on ex vivo porcine skin. The format is cell-based, Staphylococcus aureus. Conditions: 10 μM applied 10 minutes, 15 minutes irradiation, mean of three target areas. On the procedure: Excised porcine skin was cut into 3(4)×3(4) cm^2 pieces under sterile conditions and incubated in 70% ethanol for 5 minutes to reduce background of colonised bacteria. After three washing steps in PBS, the skin pieces were fixed in petri dishes with Hepes-Agar. The epidermis (stratum corneum) was then inoculated with S. aureus ATCC BAA-44 (˜10^8, Volume: 100 μl) and the skin surface dried under laminar flow cabinet until visible dry. The regions of interest were determined using a “pap” pen (1 cm^2 diameter). A sterile solution of Compound 10 (10 μM) was applied onto the skin for 10 minutes. Post application, the ex vivo porcine skin was placed under the Waldmann light source 236 and illuminated for 15 min (15.2 mW/cm^2, 13.7 J/cm^2). A colony forming unit assay was performed to determine viable bacterial cell number immediately after irradiation using a sterile cotton rod to remove bacteria from the stratum corneum. The sterile cotton rod was moistened in sampling solution (0.1% Tween80 in 0.0075 M phosphate buffer pH 7.9) before swabbing the skin surface (3 times) and vortexed in sampling solution before undertaking serial dilutions to determine the bacterial recovery.

In series [3] the test system is Escherichia coli (strain ATCC 25922). As to the kind of experiment: Initial screening: growth inhibition after white light illumination. The format is cell-based. Conditions: Escherichia coli. On the procedure:
(§1) The toxic effects of exemplary compounds of the invention against two bacterial strains, the Gram negative bacterium Escherichia coli (strain ATCC 25922) and the Gram positive bacterium Staphylococcus aureus (methicillin-resistant strain ATTC BAA-44), were evaluated by measuring the extent of growth inhibition (bacteriostatic effect) and growth […] (cytocidal effect) in the dark and upon light exposure. Initial compound screening was undertaken using white light [390-740 nm] (150 mW/cm^2) for various timepoints of a concentration of 3 μM (see Table 1). Further experiments were undertaken on those compounds identified from this initial screen using a light source emitting light at a wavelength between 417-420 nm at 15.2 mW/cm^2, 13.68 J/cm^2 (Waldmann Eclairage SA, France) (see Table 20.
(§2) The following protocol was used for the initial screening of the exemplary compounds (Table 1) (see Reddi et al., 2002, Photochem. Photobiol. 75(5):462-470): • (i) E. coli and S. aureus cells were grown overnight on brain heart infusion agar, resuspended in brain heart infusion broth, harvested by centrifugation (3000 g for 15 minutes) and washed once with phosphate buffered saline (PBS) at pH 7.4 consisting 2.7 mM KCl and 0.14 M NaCl. • (ii) The cells were then resuspended in PBS to an optical density at 650 nm of 0.7, which corresponds to a density of 10^8 to 10^9 cells/ml. • (iii) Next, the cells were incubated in PBS in the dark for 5 minutes with 3.0 μM of the compound to be tested. • (iv) After dark incubation, cells were illuminated with white light (wavelength: 390 to 740 nm) (150 mW/cm^2) for up to 30 minutes. During illumination, the cells were kept at 37° C. and magnetically stirred. • (v) Finally, treated and untreated (control) cells were diluted in brain heart infusion broth and maintained at […] while the absorbance of the suspension at 650 nm was monitored at predetermined time points for determining growth curves.
(§3) The percent of growth inhibition in the treated cells was calculated by the following equation: [1−(Ax−A0)/(Ac−A0)]×100 where Ax Ac are the absorbances measured after 3 hours incubation, for the treated and control cell suspensions, respectively, and A0 represents the initial absorbance.

In series [4] the test system is Staphylococcus aureus (methicillin-resistant strain ATTC BAA-44). The series is described as above. In kind it is cell-based. Conditions: Staphylococcus aureus. On the procedure:
as §1, §2, §3

Molecules are shown by their SMILES. Read-outs that look alike come from different tables or passages of the source.

As to `C[N+](C)(C)CCCOc1ccc(-c2c3nc(cc4ccc([nH]4)c(-c4ccc(OCCC[N+](C)(C)C)cc4)c4nc(cc5ccc2[nH]5)C=C4)C=C3)cc1.[Cl-].[Cl-]` [Compound 10, 5,15-bis-[4-(3-Trimethylammonio-propyloxy)-phenyl]-porphyrin dichloride], the “cell viability on addition of D2O” value in series [1] (D2O) was “dramatic decrease”. Moreover, the “Cell killing in the presence of sodium azide” value in series [1] (sodium azide (50 mM)) is “reduced”. In addition, the photo-toxic potential result in series [2] (32 μM topical formulation, 24 hours on intact and abraded skin, then 30 minute light exposure, examined 24 and 72 hours post illumination) is given as “no clinical signs or symptoms or histological findings that suggested any photo-toxic potential”. The “damage to the surface of the skin” value in series [2] (32 μM, in the absence of light) was “did not result in any damage to the surface of the skin”. In the series with S. aureus ATCC BAA-44, this compound showed a growth reduction of 3.2 log10.
On to `CN(C)CCC[N+](C)(C)CCCOc1ccc(-c2c3nc(cc4ccc([nH]4)c(-c4ccc(OCCC[N+](C)(C)CCCN(C)C)cc4)c4nc(cc5ccc2[nH]5)C=C4)C=C3)cc1.[Cl-].[Cl-]` [Compound 8, 5,15-bis-(4-{3-[(3-Dimethylamino-propyl)-dimethylammonio]-propyloxy}-phenyl)-porphyrin dichloride], for which the inhibition at 3 µM is 100% in series [3] (ATCC25922, 5 min, read-out: Growth inhibition (%), E. coli, 5 min incubation, illumination time 5 min); 23% in series [3] (ATCC25922, read-out: Growth inhibition (%), E. coli, 5 min incubation, illumination time 0 min); 69% in series [3] (ATCC25922, read-out: Growth inhibition (%), E. coli, 5 min incubation, illumination time 1 min); 100% in series [3] (ATCC25922, read-out: Growth inhibition (%), E. coli, 5 min incubation, illumination time 10 min); 100% in series [3] (ATCC25922, read-out: Growth inhibition (%), E. coli, 5 min incubation, illumination time 15 min); 100% in series [3] (ATCC25922, read-out: Growth inhibition (%), E. coli, 5 min incubation, illumination time 30 min). For the same compound, the inhibition at 3 µM was 100% in series [4] (BAA44, 5 min, read-out: Growth inhibition (%), S. aureus, 5 min incubation, illumination time 5 min); 80% in series [4] (BAA44, read-out: Growth inhibition (%), S. aureus, 5 min incubation, illumination time 0 min); 99% in series [4] (BAA44, read-out: Growth inhibition (%), S. aureus, 5 min incubation, illumination time 1 min); 100% in series [4] (BAA44, read-out: Growth inhibition (%), S. aureus, 5 min incubation, illumination time 10 min); 100% in series [4] (BAA44, read-out: Growth inhibition (%), S. aureus, 5 min incubation, illumination time 15 min); 100% in series [4] (BAA44, read-out: Growth inhibition (%), S. aureus, 5 min incubation, illumination time 30 min).

For orientation: inhibition means the change of the read-out against control, counted positive when it falls.

The record behind these values is patent publication US8084602B2, “Porphyrin derivatives and their use in photodynamic therapy” (Destiny Pharma Limited, priority 2002, dated 2011).
